This is an account of results in PMC11459959, “Discovery of new acetamide derivatives of 5-indole-1,3,4-oxadiazol-2-thiol as inhibitors of HIV-1 Tat-mediated viral transcription” (Antimicrobial Agents and Chemotherapy, 2024).

The structures appear in SMILES notation. Read-outs that look alike come from different tables or passages of the source.

In data set [1] the test system is HIV-1NL4-3 IRES-eGFP-nef+. Nature of the data set: eGFP-encoding HIV-1 infection of TZM-bl cells. As to conditions: 9, 10, 13 1.5 μM, 20, 21, 22 4 μM, seliciclib 10 µM, triptolide 5 nM, DTG 2 nM, EFV 2 nM, 2 days. It is filed as cell-based.
A short description of data set [2]: Cell viability of A3.01 cells. Type of data set: cell-based. Conditions: human. Here is the method:
The p24 level from the cell supernatant was subsequently determined using a p24 […] kit (PerkinElmer). In parallel, the cell viability was determined without viral infection because of the viral cytopathic effect. […] In parallel, cell viability was determined. The data (A and B) are presented as the mean ± SD (n = 3). (C) PBMCs (4 × 10^5) infected with HIV-AD8 at an MOI of 0.1 were treated with 1.5 µM of the compounds or ARVs for 3 days. The levels of p24 and cell viability were subsequently determined. (D) J1.1 cells were cultured with the compounds ([…]) under 50 ng/mL phorbol myristate acetate (PMA) treatment for 2 days. The level of p24 was subsequently determined. (E) J-Lat 6.3 cells were treated with the compounds (1.5 µM) under 1 µg/mL of PMA for 2 days. The GFP-positive cell population was analyzed using flow cytometry. The data are represented as a value relative to the DMSO-treated vehicle (D) and a percent of the GFP^+ cell population (E) as mean ± SD (n = 3).
The inhibitory effects of the compounds on viral replication were determined with some minor modifications, as previously described ([12], [62]). […] PBMCs (4 × 10^5) pre-activated with PHA-M for 3 days were washed with fresh media to remove excess PHA-M and subsequently infected with HIV-1NL4-3 or HIV-1AD8 or PIs-resistant HIV-1 strains as A3.01 infection. After infection, the infectious media were replaced with fresh media supplemented with international 10 units (IU)/mL of IL-2 and the indicated compounds. At 72 h after infection, the inhibitory effect of the compounds on viral replication was determined by measuring the p24 amount, an HIV capsid protein, using an HIV-1 p24 […] kit (PerkinElmer, Waltham, MA, USA). Cell viability was determined as described above. The inhibitory effects on provirus reversing in J1.1 and J-Lat 6.3 cells were determined as previously described ([12], [41], [63]) with some minor modifications. Briefly, 5 × 10^4 persistently HIV-1-infected J1.1 or J-Lat 6.3 cells were cultured in either the presence or absence of the compounds at a final concentration of 1.5 µM and treated with PMA (50 ng/mL for J1.1 cells, 1 µg/mL for J-Lat 6.3 cells). Two days after treatment, the levels of viral production were determined using p24 […] for J1.1 cells and flow cytometry analysis for GFP-expressing J-Lat 6.3 cells.

The mark [3] stands for this setting: A3.01 cells, absence of HIV-1 infection, mean ± SD, read-out: CC50.

As for `Cc1[nH]c2ccc(-c3nnc(SCC(=O)N4CCCC4)o3)cc2c1C` [Compound 13, 2-((5-(2,3-Dimethyl-1H-indol-5-yl)-1,3,4-oxadiazol-2-yl)thio)-1-(pyrrolidin-1-yl)ethan-1-one], in data set [1], the “inhibition of viral-expressed eGFP signal” value (shortened to “inhibition”) is listed as “remarkably inhibited”. The 50% cytotoxic concentration (CC50) (usually the concentration that lowers cell viability or growth by half) at 3 days in data set [2] amounted to 47.6 ± 1.88 µM.

Regarding `O=C1Nc2ccc(Cl)cc2[C@@](C#CC2CC2)(C(F)(F)F)O1` [EFV, efavirenz, reference compound], in data set [1], the “inhibition” value is “remarkably inhibited”. In addition, the CC50 at 3 days in data set [2] (setting [3]) was determined as 22.7 ± 1.65 µM.

For `C[C@@H]1CCO[C@H]2Cn3cc(C(=O)NCc4ccc(F)cc4F)c(=O)c(O)c3C(=O)N12` [DTG, dolutegravir, reference compound], the “inhibition” value in data set [1] is “remarkably inhibited”. Half-maximal cytotoxicity in data set [2] (CC50 at 3 days) was put at 7.67 ± 0.61 µM.

Take `Cc1[nH]c2ccc(-c3nnc(SCC(=O)N4CCCCC4)o3)cc2c1C` [Compound 9, 2-((5-(2,3-Dimethyl-1H-indol-5-yl)-1,3,4-oxadiazol-2-yl)thio)-1-(piperidin-1-yl)ethan-1-one]: the “inhibition” value in data set [1] is listed as “remarkably inhibited”. In data set [2], this molecule yielded a CC50 at 3 days of 56.1 ± 4.48 µM.

Take `CC(C)[C@]12O[C@H]1[C@@H]1O[C@]13[C@]1(O[C@H]1C[C@H]1C4=C(CC[C@@]13C)C(=O)OC4)[C@@H]2O` [triptolide, reference compound]: the “inhibition” value in data set [1] is “remarkably inhibited”. Also, the CC50 at 3 days in data set [2] (setting [3]) came to 0.22 ± 0.04 µM.
